Measurements: ChEMBL document CHEMBL4831548, “Sesquiterpene Lactones from Sigesbeckia glabrescens Possessing Potent Anti-inflammatory Activity by Directly Binding to IKKα/β” (J Nat Prod, 2021)
Calls of active or inactive are those of the source. No cut-off for these calls is given here.

Experiments:
RAW264.7 [1] = assay: Inhibition of LPS-induced NO production in mouse RAW264.7 cells preincubated for 2 hrs followed by LPS stimulation for 24 hrs by Griess reagent based assay; type: functional, cell-based
RAW264.7 [2] = assay: Anti-inflammatory activity against LPS-stimulated mouse RAW264.7 cells assessed as decrease in IL-1 beta production at 3 uM preincubated for 2 hrs followed by LPS stimulation and measured after 24 hrs by ELISA assay; type: functional, cell-based; settings: time 26.0 hrs
RAW264.7 [3] = assay: Anti-inflammatory activity against LPS-stimulated mouse RAW264.7 cells assessed as decrease in IL-6 production at 3 uM preincubated for 2 hrs followed by LPS stimulation and measured after 24 hrs by ELISA assay; type: functional, cell-based; settings: time 26.0 hrs
RAW264.7 [4] = assay: Anti-inflammatory activity against LPS-stimulated mouse RAW264.7 cells assessed as decrease in TNF-alpha production at 3 uM preincubated for 2 hrs followed by LPS stimulation and measured after 24 hrs by ELISA assay; type: functional, cell-based; settings: time 26.0 hrs
RAW264.7 [5] = assay: Inhibition of LPS-induced NO production in mouse RAW264.7 cells at 3 uM incubated for 2 hrs followed by LPS stimulation and measured after 24 hrs by Griess reagent based assay; type: functional, cell-based; settings: time 26.0 hrs
RAW264.7 [6] = assay: Inhibition of LPS-induced PGE2 production in mouse RAW264.7 cells at 3 uM preincubated for 2 hrs followed by LPS stimulation and measured after 24 hrs by ELISA assay; type: functional, cell-based; settings: time 26.0 hrs
RAW264.7 [7] = assay: Cytotoxicity against mouse RAW264.7 cells assessed as effect on cell viability up to 20 uM measured after 24 hrs by CCK8 assay; type: cell-based; settings: raw264.7, 24 h

IC50 (RAW264.7 [1]) | Structure (SMILES) | Activity (RAW264.7 [7]) | further results
> 20 µM | C=C1C(=O)O[C@@H]2C[C@H]3CC/C=C(/C[C@@H](OC(=O)/C(C)=C/C)[C@@H]12)[C@H](O)OC3 | Non-Toxic | –
2.3 µM | C=C1C(=O)O[C@@H]2C[C@H](CO)CC/C=C(\CO)C[C@@H](OC(=O)/C(C)=C\C)[C@@H]12 | Non-Toxic | –
> 20 µM | C=C1C(=O)O[C@@H]2C[C@H](CO)CC/C=C(\CO)C[C@@H](O)[C@@H]12 | Non-Toxic | –
5.6 µM | C=C1C(=O)O[C@@H]2C[C@H](CO)CC/C=C(\CO)C[C@@H](OC(=O)C=C(C)C)[C@@H]12 | Non-Toxic | –
9.3 µM | C=C1C(=O)O[C@@H]2/C=C(\CO)CC/C=C(\CO)[C@H](OC(C)=O)[C@@H](OC(=O)/C(C)=C\C)[C@@H]12 | Non-Toxic | –

Second part, the compound before the results:

Structure (SMILES) | IC50 (RAW264.7 [1]) | Activity (RAW264.7 [7]) | further results
COc1cc(/C=C/C(=O)CC(=O)/C=C/c2ccc(O)c(OC)c2)ccc1O [CURCUMIN] | 3.5 µM | – | Activity (RAW264.7 [2]): Active; Activity (RAW264.7 [3]): Active; Activity (RAW264.7 [4]): Active; inhibition (RAW264.7 [5]): Active; inhibition (RAW264.7 [6]): Active
C=C1C(=O)O[C@@H]2/C=C(\CO)CC/C=C(\CO)[C@H](OC(C)=O)[C@@H](OC(=O)/C(C)=C/C)[C@@H]12 | 10 µM | Non-Toxic | –
C=C1C(=O)O[C@@H]2/C=C(\CO)CC/C=C(\C=O)[C@H](OC(C)=O)[C@@H](OC(=O)/C(C)=C\C)[C@@H]12 | 16.5 µM | Non-Toxic | –
C=C1C(=O)O[C@@H]2/C=C(\C)CC/C=C(\CO)C[C@@H](O)[C@@H]12 | > 20 µM | Non-Toxic | –
C=C1C(=O)O[C@@H]2/C=C3/CC/C=C(\[C@H](O)OC3)[C@H](O)[C@@H](OC(=O)/C(C)=C/C)[C@@H]12 | > 20 µM | Non-Toxic | –
C=C(C)C(=O)O[C@H]1[C@H]2C(=C)C(=O)O[C@@H]2/C=C(\CO)CC/C=C(\CO)[C@@H]1OC(C)=O | 9.9 µM | Non-Toxic | –
C=C1C(=O)O[C@@H]2/C=C(\CO)CCC=C(CO)[C@H](OC(C)=O)[C@@H](OC(=O)C(C)C)[C@@H]12 | 10.2 µM | Non-Toxic | –
